Among the data in ChEMBL document CHEMBL1201862, “PubChem BioAssay data set” (2004) are AC50, IC50 and EC50 values, retold here.

Test [1] can be described thus: Luminescence Cell-Based Dose Retest to Confirm Inhibitors of Cancer Stem Cells. [Related pubchem assays (depositor defined):AID2717, AID2721]. The class given is functional. The note with it: Homo sapiens.
Test [2] concerns the target T1, Ubiquitin-conjugating enzyme E2 N (Homo sapiens, UniProt P61088).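 Further: Dose-response confirmation in a TR-FRET assay detecting UBC13-driven polyubiquitin chain formation, inhibition measured.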
T1 sequence (P61088 whole entry): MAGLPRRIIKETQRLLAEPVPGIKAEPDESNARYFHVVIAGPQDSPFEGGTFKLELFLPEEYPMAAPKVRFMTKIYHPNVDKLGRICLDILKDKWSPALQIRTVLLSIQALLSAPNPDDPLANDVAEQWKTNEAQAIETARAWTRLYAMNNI
The class given is functional.

In the next test the target is Integrin alpha-4 (Homo sapiens, UniProt P13612). Briefly: VLA-4 integrin allosteric ligands, SAR follow-up, cell-based, LIBS antibody binding, flow cytometry (AID 488791). The class given is functional. On the technique in general: A flow cytometer gives signals particle by particle.
In the next test the target is Melanocortin receptor 4 (Homo sapiens, UniProt P32245). The class given is functional, cell-based.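 Further: Cell-based assay with luminescence read-out, confirmatory dose-response testing for agonist activity of biased ligands at MC4R; human U2OS cells with tagged receptor and beta-arrestin; potency of agonists that increase receptor coupling to beta-arrestin.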
Test [3] in a line: A549 cell cytotoxicity, dose response, cytotoxicity control, plate reader, cherry-pick, antagonist series (AID 743412). The class given is functional, cell-based.
The nature of test [4]: HepG2 cell cytotoxicity, dose response, cytotoxicity control, plate reader, cherry-pick, antagonist series (AID 743416). The class given is functional, cell-based.
Test [5] can be described thus: LGR2 antagonists, dose response, cell-based, HEK293, CRE-luciferase reporter, cherry pick, set 2 (AID 743343).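 Further: transfected cells were stimulated with diluted bursicon conditioned medium after compound addition.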 The class given is functional. On the technique in general: In a reporter assay the amount or activity of a reporter protein is the signal.
Test [6] can be described thus: MC4R antagonists, dose response, counter-screen for LGR2 antagonist project, cell-based, plate reader, cherry pick (AID 743444).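 Further: transfected HEK 293 cells stimulated with alpha-MSH peptide; potency of inhibitors of the alpha-MSH evoked signal.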 The class given is functional. Background: The purpose of a counterscreen is to sort out artefacts and off-target activity.
The nature of test [7]: HEK293 cell cytotoxicity, dose response, cytotoxicity control, plate reader, cherry-picked samples (AID 743446). The class given is functional, cell-based.
Test [8] has as its target Tyrosine-protein phosphatase non-receptor type 7 (Homo sapiens, UniProt P35236). Put plainly: SAR analysis of chemical inhibitors of HePTP using a Fluorescent assay - Set 2. [Related pubchem assays (depositor defined):AID1059, AID1077, AID1661, AID2085, AID521]. The class given is functional.
The target of test [9] is Dual specificity protein phosphatase 3 (Homo sapiens, UniProt P51452). Put plainly: SAR VHR1 Fluorescent Assay for In Vitro dose response studies Set 2. [Related pubchem assays (depositor defined):AID1654, AID1661, AID1878]. The class given is functional.
In another test the target is Mu-type opioid receptor (Homo sapiens, UniProt P35372). Briefly: SAR Analysis of Antagonists of the MOR Receptor using an Image-Based Assay - Set 3. [Related pubchem assays (depositor defined):AID1777, AID1785, AID1786, AID1966, AID2133, AID2136, AID2284, AID2285, AID2420]. The class given is functional.
Test [10] deals with Delta-type opioid receptor (Homo sapiens, UniProt P41143). Briefly: SAR Analysis of Antagonists of the DOR Receptor using an Image-Based Assay - Set 3. [Related pubchem assays (depositor defined):AID1777, AID1785]. The class given is functional.
The target in test [11] is T2, Kappa-type opioid receptor (Homo sapiens, UniProt P41145). Briefly: SAR analysis of small molecule antagonists of the kappa opioid receptor via a luminescent beta-arrestin assay - Set 3. [Related pubchem assays (depositor defined):AID1777, AID1778, AID1785, AID1786, AID1966, AID2133, AID2136, AID2285, AID2495]. The class given is functional.
In test [12] the target is T2, Kappa-type opioid receptor. Put plainly: SAR analysis of Antagonists of the Kappa Opioid Receptor (KOR) using an Image-Based Assay - Set 3. [Related pubchem assays (depositor defined):AID1777, AID1785]. The class given is functional.
The test system of the next test is T-cell. Briefly: inhibitors of CD8+ T cell–vesicle binding, dose response, mouse 2C CD8+ T cells, flow cytometry (AID 485284). The class given is functional.

The source made the active and inactive calls.

T2 sequence (P41145 whole entry): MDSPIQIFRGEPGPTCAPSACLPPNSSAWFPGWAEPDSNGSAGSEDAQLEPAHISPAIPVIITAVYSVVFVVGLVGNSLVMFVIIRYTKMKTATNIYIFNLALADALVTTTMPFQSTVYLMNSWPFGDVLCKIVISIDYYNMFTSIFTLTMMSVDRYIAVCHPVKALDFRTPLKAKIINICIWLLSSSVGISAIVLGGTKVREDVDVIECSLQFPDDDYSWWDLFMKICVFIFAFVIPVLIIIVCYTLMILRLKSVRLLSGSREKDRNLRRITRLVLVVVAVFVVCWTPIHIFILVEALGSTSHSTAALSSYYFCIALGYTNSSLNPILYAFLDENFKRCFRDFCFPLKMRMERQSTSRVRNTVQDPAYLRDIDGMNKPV
Chain of Integrin alpha-4 (P13612 whole entry): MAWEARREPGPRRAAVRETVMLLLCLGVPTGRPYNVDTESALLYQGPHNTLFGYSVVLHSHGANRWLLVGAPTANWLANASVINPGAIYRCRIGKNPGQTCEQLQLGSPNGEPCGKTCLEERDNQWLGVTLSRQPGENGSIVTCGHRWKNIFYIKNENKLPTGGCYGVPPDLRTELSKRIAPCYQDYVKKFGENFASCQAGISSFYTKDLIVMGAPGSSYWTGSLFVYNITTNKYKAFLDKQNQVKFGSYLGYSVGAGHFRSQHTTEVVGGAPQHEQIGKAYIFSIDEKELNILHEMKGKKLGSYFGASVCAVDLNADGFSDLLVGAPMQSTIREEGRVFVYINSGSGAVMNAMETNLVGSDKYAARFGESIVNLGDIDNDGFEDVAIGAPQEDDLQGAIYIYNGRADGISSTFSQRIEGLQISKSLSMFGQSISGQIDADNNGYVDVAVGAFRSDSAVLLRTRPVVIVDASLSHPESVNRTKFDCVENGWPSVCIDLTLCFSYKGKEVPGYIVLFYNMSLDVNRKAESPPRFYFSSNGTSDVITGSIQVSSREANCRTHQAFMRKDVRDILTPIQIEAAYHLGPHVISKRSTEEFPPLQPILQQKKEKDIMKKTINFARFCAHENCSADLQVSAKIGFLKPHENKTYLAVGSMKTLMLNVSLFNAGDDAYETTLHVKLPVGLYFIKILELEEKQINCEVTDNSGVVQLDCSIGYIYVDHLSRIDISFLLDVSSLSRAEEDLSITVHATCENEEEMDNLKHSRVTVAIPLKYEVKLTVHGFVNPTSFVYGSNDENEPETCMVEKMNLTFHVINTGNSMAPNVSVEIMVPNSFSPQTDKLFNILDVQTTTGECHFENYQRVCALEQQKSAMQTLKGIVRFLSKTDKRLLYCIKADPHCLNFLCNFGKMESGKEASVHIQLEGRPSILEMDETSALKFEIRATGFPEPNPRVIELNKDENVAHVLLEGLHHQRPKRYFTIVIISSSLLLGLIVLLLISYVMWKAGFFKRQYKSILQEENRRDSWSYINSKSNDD
Chain of Tyrosine-protein phosphatase non-receptor type 7 (P35236 whole entry): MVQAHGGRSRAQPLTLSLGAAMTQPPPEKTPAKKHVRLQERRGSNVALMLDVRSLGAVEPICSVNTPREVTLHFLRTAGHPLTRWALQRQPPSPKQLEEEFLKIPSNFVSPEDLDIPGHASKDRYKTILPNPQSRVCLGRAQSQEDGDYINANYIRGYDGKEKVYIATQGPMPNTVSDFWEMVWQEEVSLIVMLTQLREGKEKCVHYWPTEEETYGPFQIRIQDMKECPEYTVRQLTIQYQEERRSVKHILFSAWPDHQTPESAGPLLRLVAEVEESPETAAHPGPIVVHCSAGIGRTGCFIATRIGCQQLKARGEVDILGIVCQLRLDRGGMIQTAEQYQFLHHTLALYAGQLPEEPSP
Chain of Mu-type opioid receptor (P35372 whole entry): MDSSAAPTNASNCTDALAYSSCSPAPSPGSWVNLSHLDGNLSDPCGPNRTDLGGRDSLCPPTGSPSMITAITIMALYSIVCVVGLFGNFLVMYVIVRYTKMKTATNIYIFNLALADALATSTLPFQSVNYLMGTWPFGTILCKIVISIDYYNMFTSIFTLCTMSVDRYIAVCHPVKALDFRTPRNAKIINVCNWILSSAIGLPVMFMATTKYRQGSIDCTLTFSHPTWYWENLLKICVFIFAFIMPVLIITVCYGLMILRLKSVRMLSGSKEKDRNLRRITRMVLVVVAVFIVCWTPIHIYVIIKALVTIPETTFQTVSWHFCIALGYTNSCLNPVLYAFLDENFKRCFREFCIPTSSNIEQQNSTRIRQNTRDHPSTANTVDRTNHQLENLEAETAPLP
Chain of Melanocortin receptor 4 (P32245 whole entry): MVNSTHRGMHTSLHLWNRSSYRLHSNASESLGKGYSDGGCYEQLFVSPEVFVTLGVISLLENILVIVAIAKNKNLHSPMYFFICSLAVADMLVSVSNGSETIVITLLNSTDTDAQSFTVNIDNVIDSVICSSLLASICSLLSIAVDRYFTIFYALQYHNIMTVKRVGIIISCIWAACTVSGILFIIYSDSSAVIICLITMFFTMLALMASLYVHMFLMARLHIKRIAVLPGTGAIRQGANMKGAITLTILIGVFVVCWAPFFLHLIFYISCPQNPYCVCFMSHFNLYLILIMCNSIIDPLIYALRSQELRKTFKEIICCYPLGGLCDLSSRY
Chain of Delta-type opioid receptor (P41143 whole entry): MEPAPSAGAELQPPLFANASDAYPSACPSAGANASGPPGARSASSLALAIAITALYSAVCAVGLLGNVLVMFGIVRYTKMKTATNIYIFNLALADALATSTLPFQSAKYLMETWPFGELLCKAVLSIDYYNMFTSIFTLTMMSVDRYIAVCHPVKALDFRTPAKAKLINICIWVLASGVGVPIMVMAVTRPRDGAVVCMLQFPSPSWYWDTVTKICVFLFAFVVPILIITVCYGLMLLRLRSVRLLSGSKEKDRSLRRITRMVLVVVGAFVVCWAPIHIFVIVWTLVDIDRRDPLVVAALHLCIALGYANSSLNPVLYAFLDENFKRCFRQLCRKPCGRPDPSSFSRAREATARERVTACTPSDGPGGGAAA
Chain of Dual specificity protein phosphatase 3 (P51452 whole entry): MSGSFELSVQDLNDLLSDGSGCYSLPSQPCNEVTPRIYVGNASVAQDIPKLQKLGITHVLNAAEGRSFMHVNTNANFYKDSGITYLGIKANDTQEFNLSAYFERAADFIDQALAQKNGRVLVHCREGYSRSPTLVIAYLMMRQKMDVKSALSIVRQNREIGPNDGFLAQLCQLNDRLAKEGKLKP

Usually AC50 stands for the concentration giving half of the maximal activity seen. Usually IC50 stands for the concentration that inhibits the measured activity by half. A word on the EC50: it is the concentration that produces a half-maximal response. Turning to `COc1cccc(-c2sc3ccccc3c2-c2ccc(OCCN(C)C)cc2)c1`, the AC50 is 3.29 µM (active) in test [1]; 7.82 µM (active) in test [3]; 8.01 µM (active) in test [4]; 13 µM (active) in test [5]; 11.7 µM (active) in [6]; 15.2 µM (active) in test [7]. In test [2], the IC50 is > 20 µM (inactive). The figures for the EC50 at Integrin alpha-4 and at Melanocortin receptor 4 were 29.1 µM (active) and > 3.3 µM (active), respectively.
With `CC(C)(C)c1cc(C(=S)NCc2ccc(F)c(C(F)(F)F)c2)cc(C(C)(C)C)c1`, the figures for the IC50 in test [8] and in test [9] were 27 µM (active) and 67.4 µM (active), respectively.
For `COc1ccc(S(=O)(=O)NCc2ccc(C(=O)NCCN(Cc3ccccc3)C(C)C)cc2)cc1`, the IC50 on Mu-type opioid receptor is 9.6 µM (active); in test [10], > 32 µM (inactive); in [11], 2.63 µM (active); in test [12] it was 0.806 µM (active).
Take `Cc1ccc(/C=N/NC2=NC(=O)C(CC(=O)Nc3ccc(Cl)cc3)S2)o1` (stereo unspecified): the EC50 with T-cell was 15.2 µM (active).
